In ChEMBL document CHEMBL1817662, “Swerilactones L-O, secoiridoids with C₁₂ and C₁₃ skeletons from Swertia mileensis” (J Nat Prod, 2011):

Tests used:
[1] = Selectivity index, ratio of CC50 for human HepG2(2.2.15) cells to IC50 for HBeAg antigen secretion in HBV infected in human HepG2(2.2.15) cells; format: functional
[2] = Cytotoxicity in human HepG2(2.2.15) cells after 72 hrs by MTT assay; format: cell-based
[3] = Selectivity index, ratio of CC50 for human HepG2(2.2.15) cells to IC50 for HBsAg antigen secretion in HBV infected in human HepG2(2.2.15) cells; format: functional
Hepatitis B virus [4] = experiment: Antiviral activity against HBV infected in human HepG2(2.2.15) cells assessed as reduction in HBsAg antigen secretion after 72 hrs by ELISA; format: functional, organism-based; settings: HepG2 2.2.15, 72 h
Hepatitis B virus [5] = experiment: Antiviral activity against HBV infected in human HepG2(2.2.15) cells assessed as reduction in HBeAg antigen secretion after 72 hrs by ELISA; format: functional, organism-based; settings: HepG2 2.2.15, 72 h

IC50 (Hepatitis B virus [4]) | IC50 (Hepatitis B virus [5]) | Compound | Ratio CC50/IC50 [1] | CC50 at 72 h [2] | Ratio CC50/IC50 [3]
1.47 mM | 0.88 mM | CC(=O)C[C@@H]1O[C@@H](C)C(=O)C2=C1C(=O)OCC2 [Swerilactone L] | 1.62 | 1.43 mM | <1
> 0.51 mM | > 0.51 mM | CC(=O)C[C@H](O)c1cccc2c1CCOC2=O [Swerilactone N] | – | > 0.51 mM | –
> 1.44 mM | > 1.44 mM | CC(=O)/C=C/c1cccc2c1CCOC2=O [Swerilactone O] | – | > 1.44 mM | –

Second part, the compound before the results:

Compound | IC50 (Hepatitis B virus [4]) | IC50 (Hepatitis B virus [5]) | Ratio CC50/IC50 [1] | CC50 at 72 h [2] | Ratio CC50/IC50 [3]
Nc1ccn([C@@H]2CS[C@H](CO)O2)c(=O)n1 [LAMIVUDINE] | – | – | 1.1 | 33.2 mM | –
CC(=O)c1cc2c(c([C@H](C)O)c1)CCOC2=O [Swerilactone M] | 1.2 mM | > 2.69 mM | <1 | 1.84 mM | 1.53
